In patent US20260335294A1, “TREATING CONGENITAL DISORDERS OF GLYCOSYLATION” (Mayo Foundation for Medical Education and Research, priority 2022, published 2026):

Assays:
[1] = tested on: PMM; details: patient fibroblasts; cited from earlier work
[2] = tested on: pmm2 mutant zebrafish; assay: Zebrabox motility assay; type: in vivo
Method: Zebrabox Motility Assay Progeny of a pmm2^sa1050/+ (pmm2^m/+) mating were collected and raised in the light following standard protocols. […] Embryos were also fed a small number of rotifers daily once behavioral readings were completed. Locomotor activity (swim paths, speeds) was monitored for ten-minute intervals from 6-10 dpf using the Zebrabox System (ViewPoint Inc., Toronto, Canada). Data was analyzed and graphed using GraphPad Prism.
Then, both wt and pmm2 mutant zebrafish were treated with 20 µM daily epalrestat, which increased the distance swam and the number of swim events initiated in the pmm2 mutant zebrafish (FIG. 5 C,D). The improvement was most significant at 6 dpf and 7 dpf (FIG. 5 C,D).

[3] = tested on: PMM2-CDG patients; assay: Nijmegen Pediatric CDG Rating Scale (NPCRS) in patients on epalrestat; type: in vivo, human
Excerpt: (§1) The primary objective of the study was to assess the efficacy and safety of epalrestat treatment in 3 PMM2-CDG pediatric subjects prior to a planned Phase III clinical trial (Oral epalrestat therapy in Pediatric Subjects with PMM2-CDG, NCT04925960). The secondary objective was to assess the ability of epalrestat to improve clinically relevant aspects of PMM2-CDG such as increased urine polyols (sorbitol, mannitol), abnormal glycosylation (carbohydrate deficient transferrin), abnormal coagulation (ATIII=antithrombin III), impaired liver function (ALT=Alanine Transaminase, AST=Aspartate Transaminase), neurologic function (Brief Ataxia Rating Scale=BARS), severity of phenotype (Nijmegen Pediatric CDG Rating Scale=NPCRS). The ability of epalrestat to inhibit polyol production was monitored by evaluating urine polyol levels (sorbitol, mannitol), which are elevated in PMM2-CDG. Next, carbohydrate deficient transferrin, which is abnormal in PMM2-CDG, was evaluated in order to assess improvement of glycosylation following epalrestat treatment. CDT mono-oligo/dioligo ratio and a-oligo/dioligo ratio are used to evaluate glycosylation abnormalities. Transferrin normally occurs with two glycan chains (di-oligo). In the case of glycosylation abnormalities, glycan chains are missing (A-oligo transferrin has no glycan chains, mono-oligo has one glycan chain, di-oligo has two glycan chains). The higher ratio of a-oligo/di-oligo and mono-oligo/di-oligo indicate glycosylation abnormalities are present. Therefore, improvement in a-oligo/di-oligo and mono-oligo/di-oligo ratios can be used to monitor improvement or worsening of glycosylation status. Changes in the liver enzymes AST, ALT, which are frequently elevated in PMM2-CDG, were monitored both as part of a safety study and as part of monitoring clinical improvement in coagulation. Neurologic improvement was assessed by modified BARS scores in 2 patients (3rd patient was not eligible for the test due to age at the start of the trial). NPCRS was assessed at every visit to assess changes in the severity of the patients' phenotype. Additionally, the frequency of adverse events, changes in vital signs, complete blood count, and changes in BMI were monitored.
(§2) Two patients were started on epalrestat on single patient investigational new drug (IND) (P5 IRB: 19-010017; IND #145262; P6 Protocol PMM2-CDG-001/A). Epalrestat was initiated on the parents' own initiative in the third patient (P7). Two patients were in their second year of epalrestat treatment, while the third, was in the 3rd year of treatment. Physical, neurological, and biochemical examinations were performed in 3 PMM2-CDG patients at baseline, and at every three months after the start of the epalrestat treatment. Patients underwent NPCRS phenotype severity assessment and biological sampling at every visit. Epalrestat (Ono Pharmaceuticals, Osaka, Japan) was taken orally 3 times per day (TID) before meals in a divided dose, with dosage escalation throughout the treatment. The pharmacological profile of epalrestat was as described elsewhere (Ligezka et al, Ann. Neurol., 90(6):887-900 (2021)). The starting dosage in P5 and P6 was 0.8 mg/kg/day, while P7 was started on 0.5 mg/kg/day due to their young age. P7 dosage was increased to 0.8 mg/day after a month, once safety was established. Blood and urine samples were collected routinely. Urine polyols, carbohydrate deficient transferrin (CDT), anti-thrombin III (ATIII), liver enzymes (ALT, AST), and complete blood count (CBC) were performed. Modified Brief Ataxia Rating Scale was used to assess ataxia in the 2 patients (P5, P6; P7 was not eligible for the test due to age). The modified BARS scale included Archimedes spiral test, but not the abnormalities of the ocular pursuit system and the scale range was 0-54. Goal attainment scale (GAS) was administered as described per study protocol (ClinicalTrials.gov Identifier: NCT04199000). […]

[4] = tested on: PMM2-CDG patients; assay: Anti-thrombin III (ATIII) in patients on epalrestat; type: in vivo, human; details: for AT III: C: 0.80-1.30
Excerpt: as §1
as §2, with “routinely.” for “routinely. Urine polyols, carbohydrate deficient transferrin (CDT), anti-thrombin III (ATIII), liver enzymes (ALT, AST), and complete blood count (CBC) were performed. Modified Brief Ataxia Rating Scale was used to assess ataxia in the 2 patients (P5, P6; P7 was not eligible for the test due to age). The modified BARS scale included Archimedes spiral test, but not the abnormalities of the ocular pursuit system and the scale range was 0-54. Goal attainment scale (GAS) was administered as described per study protocol (ClinicalTrials.gov Identifier: NCT04199000).”

[5] = tested on: PMM2-CDG patients; assay: Safety and tolerability of epalrestat in pediatric patients; type: in vivo, human
Method: The primary objective of the study was to assess the efficacy and safety of epalrestat treatment in 3 PMM2-CDG pediatric subjects prior to a planned Phase III clinical trial (Oral epalrestat therapy in Pediatric Subjects with PMM2-CDG, NCT04925960). […] The ability of epalrestat to inhibit polyol production was monitored by evaluating urine polyol levels (sorbitol, mannitol), which are elevated in PMM2-CDG. Next, carbohydrate deficient transferrin, which is abnormal in PMM2-CDG, was evaluated in order to assess improvement of glycosylation following epalrestat treatment. […] Changes in the liver enzymes AST, ALT, which are frequently elevated in PMM2-CDG, were monitored both as part of a safety study and as part of monitoring clinical improvement in coagulation. Neurologic improvement was assessed by modified BARS scores in 2 patients (3rd patient was not eligible for the test due to age at the start of the trial). NPCRS was assessed at every visit to assess changes in the severity of the patients' phenotype. Additionally, the frequency of adverse events, changes in vital signs, complete blood count, and changes in BMI were monitored. […]

[6] = tested on: patient fibroblasts and healthy controls; assay: Quantification of NADPH and NADP; type: cell-based, human; details: 10 μM, 24 h
Method: Fibroblasts from three patient fibroblasts (P2, P4, P5) and two healthy controls were plated on day 1. The next day medium was changed. The cells were grown in the presence and absence of […] epalrestat for another 24 hours. The medium was then removed, cells were washed with cold saline solution (0.9% NaCl) and 250 μL of extraction buffer (50% MeOH, 30% acetonitrile, 20% H2O Tris-HCl pH 7.6) was added to the cells. The metabolites were precipitated overnight at −80 °C, samples were centrifugated at 20,000 rpm, 20 minutes, 4 °C, and supernatant was transferred to a fresh vial. Pellets were used for determination of protein concentration. Supernatant containing metabolites was analyzed by LC/MS less than 24 hours after the initial collection to avoid degradation of NADPH into NADP. Relative abundance of NADP and NADPH was obtained. […]

[7] = 20 μM daily (printed 20 M), pmm2 mutant

CC(/C=C1\SC(=S)N(CC(=O)O)C1=O)=C\c1ccccc1 [epalrestat]
PMM enzymatic activity [1]: increase | swimming behavior ([2]; 10 μM daily, wt and pmm2 mutant): no improvement in swimming behavior | distance swam [2, 7]: increased | number of swim events initiated [2, 7]: significantly increased | swimming distance at 6 dpf and 7 dpf ([2]; 20 μM daily, pmm2 zebrafish, wt n=42-46, pmm2 n=22-51): significantly increased | Total NPCRS (max 78) ([3]; P5, 12 months, 1.5 mg/kg day, baseline 24): 20 | Total NPCRS (max 78) ([3]; P5, 24 months, 2 mg/kg day, baseline 24): 18 | Total NPCRS (max 78) ([3]; P5, 28 months, 3 mg/kg day, baseline 24): 18 | Phenotype severity (NPCRS) ([3]; P5, P7 improved, words): improvement was noted in 2 out of 3 patients | Total NPCRS (max 78) ([3]; P6, 12 months, 1.5 mg/kg day, baseline 19): 19 | Total NPCRS (max 78) ([3]; P6, 18 months, 3 mg/kg day, baseline 19): 18 | Total NPCRS (max 78) ([3]; P7, 12 months, 1.5 mg/kg day, baseline 18): 15 | AT III ([4]; P5, 12 months, 1.5 mg/kg day, baseline 0.88): 0.99 IU/mL | AT III ([4]; P5, 24 months, 2 mg/kg day, baseline 0.88): 0.97 IU/mL | coagulation parameters (ATIII) ([4]; P5-P7, words): improvement | AT III ([4]; P6, 18 months, 3 mg/kg day, baseline 0.25): 0.39 IU/mL | AT III ([4]; P7, 12 months, 1.5 mg/kg day, baseline 0.21): 0.37 IU/mL | tolerability of escalating doses ([5]; three pediatric patients P5-7): well-tolerated | side-effects ([5]; three pediatric patients P5-7, oral TID, long-term): No side-effects were observed | NADP abundance [6]: decreased | NADPH abundance [6]: increased | NADPH/NADP ratio ([6]; PMM2-CDG n=3, control n=2): increased
